Test [1] addresses T1, BmDHFR (Brugia malayi, UniProt A0A4E9FIQ4). The test is described as follows: biochemical. The following applies: for inhibition of BmDHFR (in words): pH 6.0, 25°C. The test is classed as biochemical. The method, then: (§1) Compounds (-)-epicatechin, (-)-epicatechin gallate, and vitexin were tested as inhibitors of WbDHFR and BmDHFR. The compounds (-)-epicatechin and (-)-epicatechin gallate were synthesized as described previously. […] Disappearance of DHF and NADPH was observed by measuring absorbance at 340 nm to measure the DHFR activity in a SpectraMax M3 microplate reader. […] All experiments were completed in triplicate.
A linear equation was fitted to the data at each substrate concentration. […] The KI values for BmDHFR in Table 1 were obtained using the Cheng-Prusoff Equation [18]. […] Inhibitor structures are shown in supporting information (S2 Fig).

Test [2] deals with T2, WbDHFR (Wuchereria bancrofti, UniProt J9F199). Format: biochemical. The following applies: for inhibition of WbDHFR (in words): pH 6.0, 25°C. Here is the method: as §1
Test [3] has as its target T1, BmDHFR. More on the design: method as in PMID 26669020. The following applies: computational prediction, cited from earlier work.
Test [4] deals with T1, BmDHFR. The following applies: read-out: KM previously determined for BmDHFR; cited from earlier work.
Test [5] addresses T2, WbDHFR. The test is described as follows: Michaelis-Menten kinetics of WbDHFR, KM for DHF. The test is classed as biochemical. The following applies: pH 6.0, 25°C, 100 μM NADPH, MTEN buffer; ± S.D. Here is the method:
To characterize DHFR enzymatic activity, we measured absorbance at 340 nm to follow the disappearance of DHF substrate and NADPH cofactor over time. The KM of WbDHFR for DHF was determined over a concentration range of 3.8 to 195 μM DHF, at 25°C, in MTEN buffer (50 mM 2-morpholinoethane sulphonic acid (MES), 25 mM Tris, 25 mM ethanolamine, 100 mM NaCl, and 1mM DTT) at pH 6.0. Initial velocity was plotted as a function of DHF concentration using KaleidaGraph and the Michaelis-Menten equation was fitted to the data. Catalytic activities of WbDHFR and BmDHFR were determined at various pH values (5.5–9.0) in MTEN buffer. The MTEN buffer used for all the reported assays has essentially a constant ionic strength at 0.15 over the pH range for which pH values were measured. Initial velocity was plotted as a function of pH using Excel.
Fig 2 Representative Michaelis-Menten curve. The conditions in the experimental wells (200 μL) were 100 μM NADPH, 12.4 nM WbDHFR in 1 X MTEN buffer at pH 6.0 with DHF concentrations ranging from 0 to 195 μM. The Michaelis-Menten equation was fitted to the data using KaleidaGraph. The Michaelis-Menten constant for DHF was determined by averaging values from fitting three separate data sets and found to be 3.7 ± 2.0 μM (S.D.).

In test [6] the target is T1, BmDHFR. Set-up: method as in PMID 27544923. The following applies: read-out: IC50 BmDHFR found previously; cited from earlier work.
Setting [7] is: pH 6.0, 100 μM NADPH, 50 μM DHF, 40 nM BmDHFR, average of triplicates ± S.D., read-out: IC50 BmDHFR.
Where [8] appears, read: read-out: predicted KI against BmDHFR.
Where [9] appears, read: IC50 BmDHFR, pH 6.0, 100 μM NADPH, 50 μM DHF, 40 nM BmDHFR, average of triplicates ± S.D.
Where [10] appears, read: IC50 against BmDHFR Average, average of three trials.
Setting [11] is: IC50 against BmDHFR Trial 1, individual trial.
Where [12] appears, read: IC50 against BmDHFR Trial 2, individual trial.
Setting [13] is: IC50 against BmDHFR Trial 3, individual trial.
[14] abbreviates: average of three trials, read-out: IC50 against BmDHFR Average.
Setting [15] is: individual trial, read-out: IC50 against BmDHFR Trial 1.
Where [16] appears, read: individual trial, read-out: IC50 against BmDHFR Trial 2.
[17] abbreviates: obtained using the Cheng-Prusoff Equation, upper limit for tight-binding inhibitors, read-out: KI BmDHFR.

By IC50 is commonly meant the concentration needed to halve the response being measured. What is called Km is the substrate concentration at which the rate is half of its maximum.

Several values for one entry are separate records, joined by “and”; a condition that tells them apart may be missing. Equal entries are not always repeated. Entries after “also recorded” stand apart in the source; their conditions may differ. Where two headings read alike, the source gives them in different places.

Regarding `Oc1cc(O)c2c(c1)O[C@H](c1ccc(O)c(O)c1)[C@H](O)C2` [(-)-Epicatechin, (-)-epicatechin], the IC50 in test [1] (setting [7]) is greater than 2500 µM. Further, in test [1], the “inhibition of BmDHFR (in words)” value is on record as “did not observe inhibition; also recorded: neither compound showed any inhibitory activity”. Further, the “inhibition of WbDHFR (in words)” value in test [2] is reported as “did not observe inhibition; also recorded: neither compound showed any inhibitory activity”. Also, the Ki in test [3] (setting [8]) was 76 µM.

In test [1], `Nc1nc(N)c2nc(CNc3ccc(C(=O)N[C@@H](CCC(=O)O)C(=O)O)cc3)cnc2n1` [Aminopterin, aminopterin] displayed a Ki of less than 0.0017 µM. For the same molecule, the IC50 in test [1] (setting [9]) is 0.0075 ± 0.0003 µM; in test [1] (setting [10]) it was 0.00755 µM; in test [1] (setting [11]) it was 0.0072 µM; in test [1] (setting [12]), 0.0076 µM; in test [1] (setting [13]), 0.00784 µM. Moreover, the “inhibition of WbDHFR (in words)” value in test [2] is listed as “inhibit”.

Consider `Nc1nc(=O)c2c([nH]1)NCC(CNc1ccc(C(=O)N[C@@H](CCC(=O)O)C(=O)O)cc1)=N2` [DHF, dihydrofolate], for which the Km in test [4] was 14.7 ± 3.6 µM; in test [5] it was 3.7 ± 2 µM.

Consider `CN(Cc1cnc2nc(N)nc(N)c2n1)c1ccc(C(=O)N[C@@H](CCC(=O)O)C(=O)O)cc1` [Methotrexate, methotrexate], for which, in test [2], the “inhibition of WbDHFR (in words)” value is “inhibit”.

Take `CCc1nc(N)nc(N)c1-c1ccc(Cl)cc1` [Pyrimethamine, pyrimethamine]: the IC50 is 16 µM in test [1] (setting [14]); 16.4 µM in test [1] (setting [15]); 21.8 µM in test [1] (setting [16]); 8.7 µM in test [1] (individual trial, read-out: IC50 against BmDHFR Trial 3); 15.6 µM and 16 µM in test [1] (setting [7]); 109 ± 34 µM in test [6]. Besides, the Ki in test [1] (setting [17]) turned out to be 3.6 ± 1.5 µM. The “inhibition of WbDHFR (in words)” value in test [2] is on record as “inhibit”.

`Cc1nc2ccc(CN(C)c3ccc(C(=O)N[C@@H](CCC(=O)O)C(=O)O)s3)cc2c(=O)[nH]1` [Raltitrexed, raltitrexed]: the IC50 in test [1] (setting [14]) is 7.3 µM; in test [1] (setting [15]), 7.1 µM; in test [1] (setting [16]), 6.83 µM; in test [1] (setting [7]), 7.3 ± 0.2 µM. Besides, the Ki in test [1] (setting [17]) was 1.6 ± 0.04 µM. In test [2], the “inhibition of WbDHFR (in words)” value is given as “inhibit”.

Take `COc1cc(Cc2cnc(N)nc2N)cc(OC)c1OC` [Trimethoprim, trimethoprim]: the Ki in test [1] was 15 ± 3 µM; in test [3] (setting [8]), 11 µM. Also, the half-inhibitory concentration (IC50) in test [1] (setting [9]) was found to be 65 ± 13 µM; in test [1] (setting [10]), 64.7 µM; in test [1] (setting [11]) it was 80.4 µM; in test [1] (setting [12]), 61.1 µM; in test [1] (setting [13]) it was 48.9 µM. The “inhibition of WbDHFR (in words)” value in test [2] was “inhibit”.

Turning to `O=c1cc(-c2ccc(O)cc2)oc2c([C@@H]3O[C@H](CO)[C@@H](O)[C@H](O)[C@H]3O)c(O)cc(O)c12` [Vitexin, vitexin], in test [1] (setting [9]), the IC50 was greater than 240 µM. Besides, in test [1], the “inhibition of BmDHFR (in words)” value is given as “did not observe any inhibition”. Further, the “inhibition of WbDHFR (in words)” value in test [2] is on record as “did not observe inhibition”. Besides, in test [3] (read-out: predicted inhibitor of BmDHFR), the Ki was 0.465 µM.

Take (-)-epicatechin gallate: the IC50 was greater than 1000 µM in test [1] (setting [7]) and greater than 1000 µM in test [2] (pH 6.0, 100 μM NADPH, 50 μM DHF, 12.1 nM WbDHFR, average of triplicates ± S.D., read-out: IC50 WbDHFR). Also, the “inhibition of BmDHFR (in words)” value in test [1] is recorded as “did not observe inhibition; also recorded: neither compound showed any inhibitory activity”. The “inhibition of WbDHFR (in words)” value in test [2] is “did not observe inhibition; also recorded: neither compound showed any inhibitory activity”. For the same molecule, in test [3] (setting [8]), the Ki was 48 µM.

Values taken from article PMC5963757, “Expression, purification, and inhibition profile of dihydrofolate reductase from the filarial nematode Wuchereria bancrofti” (PLoS ONE, 2018).
